Data on two compounds can be found in ChEMBL document CHEMBL1154097, “Novel 3,3'-diindolylmethane derivatives: synthesis and cytotoxicity, structural characterization in solid state” (Eur J Med Chem, 2009).

Activity calls are given as the source filed them. The calls are words filed in the database; no cut-off is given here.

The subject of one assay is Malme-3M. Kind of assay: Cytotoxicity against human MALME-3M cells at 10 uM. The format is functional, cell-based.
The test system of a further assay is IGROV-1. As to the kind of experiment: Cytotoxicity against human IGROV1 cells. Format: functional.
For another assay, the system named is UO-31. Kind of assay: Cytotoxicity against human UO31 cells. The format is functional.
The test system of another assay is SK-MEL-2. As to the kind of experiment: Cytotoxicity against human SK-MEL-2 cells. The format is functional.
The next assay relates to PC-3. Kind of assay: Cytotoxicity against human PC3 cells. The format is functional.

As for `Fc1cc(F)cc(C(c2c[nH]c3ccccc23)c2c[nH]c3ccccc23)c1`, in the assay with Malme-3M, the outcome was Active. Moreover, the Activity with IGROV-1 is -6.52%; in the assay on UO-31, 52.86%; in the assay with SK-MEL-2 it was 58.84%; in the assay with PC-3, 67.07%.
As for `COc1ccc2[nH]cc(C(c3cc(F)cc(F)c3)c3c[nH]c4ccc(OC)cc34)c2c1`, in the assay with Malme-3M, the outcome was Active. In addition, the Activity in the assay with IGROV-1 was -7.1%; in the assay on UO-31 it was 43.23%; in the assay on SK-MEL-2, 62.49%; in the assay on PC-3 it was 50.16%.
